What all share (assay type): functional
Assay [1] relates to Mus musculus. As to the kind of experiment: Anti-inflammatory activity in mouse model of histamine-induced paw edema assessed as inhibition of inflammation at 50 mg/kg, ip dosed 1 hr before histamine injection relative to 50 mg/kg, ip indomethacin.
In assay [2] the test system is Mus musculus. As to the kind of experiment: Anti-inflammatory activity in mouse model of histamine-induced paw edema assessed as inhibition of inflammation at 50 mg/kg, ip dosed 1 hr before histamine injection.
In assay [3] the test system is Mus musculus. As to the kind of experiment: Anti-inflammatory activity in mouse model of histamine-induced paw edema assessed as inhibition of inflammation at 20 mg/kg, po dosed 1 hr before histamine injection.

Turning to `C=C(C)[C@@H]1CC[C@]2(C(=O)O)CC[C@]3(C)[C@H](CC[C@@H]4[C@@]5(C)CC[C@](O)(c6cn(C[C@H](C)N(C(=O)[C@@H](NC(=O)OC(C)(C)C)[C@@H](C)CC)C(=O)C(C)(C)NCc7ccc(OC)cc7OC)nn6)C(C)(C)[C@@H]5CC[C@]43C)[C@@H]12`, the inhibition in vivo – broadly, the share of the control response that was lost under treatment – at 50 mg/kg with Mus musculus [1] was 34.5%; in the assay with Mus musculus [2], 14.5%.
Take `C=C(C)[C@@H]1CC[C@]2(C(=O)O)CC[C@]3(C)[C@H](CC[C@@H]4[C@@]5(C)CC[C@@](O)(c6cn(C[C@H](Cc7ccccc7)N(C(=O)[C@H](Cc7cc8ccccc8[nH]7)NC(=O)OC(C)(C)C)C(=O)C(C)(C)NCc7ccc(OC)cc7OC)nn6)C(C)(C)[C@@H]5CC[C@]43C)[C@@H]12`: the inhibition in vivo at 50 mg/kg in the assay on Mus musculus [1] turned out to be 92%; in the assay on Mus musculus [2] it was 38.8%.
Regarding `C=C(C)[C@@H]1CC[C@]2(C(=O)O)CC[C@]3(C)[C@H](CC[C@@H]4[C@@]5(C)CC[C@@](O)(c6cn(C[C@H](Cc7ccccc7)N(C(=O)[C@H](CO)NC(=O)OC(C)(C)C)C(=O)C(C)(C)NCc7ccc(OC)cc7OC)nn6)C(C)(C)[C@@H]5CC[C@]43C)[C@@H]12`, the inhibition in vivo at 50 mg/kg in the assay on Mus musculus [1] is 55%; in the assay on Mus musculus [2], 23%.
In the case of `C=C(C)[C@@H]1CC[C@]2(C(=O)O)CC[C@]3(C)[C@H](CC[C@@H]4[C@@]5(C)CC[C@@](O)(c6cn(C[C@H](C)N(C(=O)[C@H](Cc7ccccc7)NC(=O)OC(C)(C)C)C(=O)C(C)(C)NCc7ccc(OC)cc7OC)nn6)C(C)(C)[C@@H]5CC[C@]43C)[C@@H]12`, the inhibition in vivo at 50 mg/kg came to 6% in the assay with Mus musculus [1] and 2.5% in the assay with Mus musculus [2].
For `C#C[C@]1(O)CC[C@]2(C)[C@H]3CC[C@@H]4[C@H]5[C@H](C(=C)C)CC[C@]5(C(=O)O)CC[C@@]4(C)[C@]3(C)CC[C@H]2C1(C)C`, the inhibition in vivo at 50 mg/kg amounted to 60% in the assay with Mus musculus [1] and 25.2% in the assay with Mus musculus [2].
Consider `COc1ccc2c(c1)c(CC(=O)O)c(C)n2C(=O)c1ccc(Cl)cc1` [INDOMETHACIN], for which the inhibition in vivo at 50 mg/kg in the assay on Mus musculus [1] came to 78%; in the assay on Mus musculus [2] it was 42%. In the assay on Mus musculus [3], the inhibition in vivo at 20 mg/kg was 32.8%.
`C=C(C)[C@@H]1CC[C@]2(C(=O)O)CC[C@]3(C)[C@H](CC[C@@H]4[C@@]5(C)CC[C@@](O)(c6cn(C[C@H](C)N(C(=O)[C@@H](NC(=O)OC(C)(C)C)[C@@H](C)CC)C(=O)C(C)(C)NCc7ccc(OC)cc7OC)nn6)C(C)(C)[C@@H]5CC[C@]43C)[C@@H]12`: the inhibition in vivo at 50 mg/kg in the assay on Mus musculus [1] was 74.3%; in the assay on Mus musculus [2], 31.2%.
For `C=C(C)[C@@H]1CC[C@]2(C(=O)O)CC[C@]3(C)[C@H](CC[C@@H]4[C@@]5(C)CC[C@@](O)(c6cn(CCNC(=O)C(C)(C)N(Cc7ccc(OC)cc7OC)C(=O)[C@H](Cc7c[nH]cn7)NC(=O)OC(C)(C)C)nn6)C(C)(C)[C@@H]5CC[C@]43C)[C@@H]12`, the inhibition in vivo at 50 mg/kg in the assay with Mus musculus [1] stood at 79%; in the assay on Mus musculus [2] it was 33.4%.

These data come from ChEMBL document CHEMBL3621158, “Synthesis of new betulinic acidpeptide conjugates and in vivo and in silico studies of the influence of peptide moieties on the triterpenoid core activity” (2015).
